# Assay results taken from ChEMBL document CHEMBL3045926, “Exacerbative role of vitamn A on radiation damage in vivo” (2008).
# Key:
# Format in all cases: functional
# Cavia porcellus [1] = test: Antioxidant activity against gamma irradiation-induced ROS production in Cavia porcellus (guinea pig) liver assessed as thiobarbituric acid reactive substance level per g tissue at 50 U/Kg, ip administered 2 days prior to irradiation-challenge measured after 30 min by spectroscopic analysis (reference value: 168.75 +/- 12.54 nmol per g tissue)
# Cavia porcellus [2] = test: (§1) Antioxidant activity against gamma irradiation-induced ROS production in Cavia porcellus (guinea pig) liver assessed as glutathione peroxidase level per mg protein at 50 U/Kg, ip administered 2 days prior to irradiation-challenge measured after 30 min by spectroscopic analysis (reference value: 0.76 +/- 0.06 U per mg protein)
# Cavia porcellus [3] = test: as §1, with “superoxide dismutase” for “glutathione peroxidase”, “8.72” for “0.76”, “1.94” for “0.06”
# Cavia porcellus [4] = test: Antioxidant activity against gamma irradiation-induced ROS production in Cavia porcellus (guinea pig) liver assessed as nitric oxide level at 50 U/Kg, ip administered 2 days prior to irradiation-challenge measured after 30 min by ESR spectroscopic analysis (reference value: 0.3 +/- 0.08 a.u)
compound,measurement,setting,value
CC1=C(/C=C/C(C)=C/C=C/C(C)=C/CO)C(C)(C)CCC1 [RETINOL],Activity,Cavia porcellus [1],197 nmol/g
same,Activity,Cavia porcellus [2],0.39 U/mg
same,Activity,Cavia porcellus [3],6.66 U/mg
same,Activity,Cavia porcellus [4],1.04 a.u.
